Holding throughout (assay type): cell-based, mice
One data set deals with hTNF-activated wt SFs. In words: CCL5 and CCL20 ELISA on hTNF-activated wild type synovial fibroblasts. The settings on record: for activity at 10 µM / activity at 25 µM / IC50 / activity at 50 µM: Mus musculus, Fibroblast; for activity at 10 µM / activity at 25 µM / activity at 50 µM / CCL5 WT, percentage of level in untreated cells / CCL20 WT, percentage of level in untreated cells: 48 h; for IC50: 10 ng/ml hTNF stimulation; for activity at 50 µM: compound 50 μM. An excerpt: (§1) Primary SFs were derived from a) human TNF transgenic (hTNFTg) mice (Keffer et al., 1991) as well as from b) CBA/C57BL6 wild type mice.
By testing the compounds in a) and b) we accessed their effect on the activated SFs phenotype caused by both the endogenous hTNF upregulation and the exogenous hTNF administration. In this way it was confirm the ability of the compounds of the invention to act in the TNF pathway directly downstream of TNF.
(§2) SFs were isolated as previously described by Armaka et al., 2009, from the ankle joints of hTNFtg or CBA/C57BL6 wild type (wt) littermates. Briefly, ankle joints were digested with Collagenase IV (Sigma Aldrich, C5138) for 45 minutes at a 37° C. shaking waterbath and after 5 days in culture at 37° C. and 5% CO2, a depletion of CD45+ lineage cells was performed using a Biotin anti-mouse CD45 Antibody (Biolegend, 103104) and Dynabeads™ Biotin Binder (ThermoFisher 11047), according to the manufacturer's protocol. After 10 days in culture, SFs were seeded overnight (O/N) at a concentration of 2×10^4 cells/well in a 96 well plate in 1×DMEM, supplemented with 100 U/ml Penicillin Streptomycin (P/S) and 10% Fetal Bovine Serum (FBS). The next day the cells were synchronized by starvation that included their O/N plating in low serum medium (0.5% FBS). Following the O/N starvation, the hTNFg and the WT SFs were treated with different concentrations of the experimental compounds. The SFs were at the same time activated with 10 ng/ml hTNF (Peprotech, 300-01A). 48 h following the treatment the cell culture supernatants were collected and analyzed by ELISA (R&S Systems, Duoset, DY478 and DY760) according to the manufacturer's protocol, for the detection of CCL5/Rantes and CCL20/Mip3, two known inflammatory chemokines. The IC50 values were determined as the concentration of the compounds required to reduce the levels of secreted CCL5 and CCL20 by 50%.
In order to determine the efficiency of the compounds of the invention, the same protocol was repeated with some minor modifications. Mainly, the concentration of hTNF was 10-fold reduced, i.e., adjusted to 1 ng/ml, and the SFs were seeded overnight at a concentration of 10^4 cells/well.
(§3) Table 7 summarizes the reduction of CCL5 and CCL20 levels achieved with the test compounds of the invention. Data are presented as percentages of the chemokine levels detected in treated cells compared to 100% levels of the chemokines detected in the untreated cells.
(§4) Table 8 summarizes the values of IC50 and toxicity for the test compounds of the invention. Dose response curves regarding the WT SFs were produced with 10 ng/ml hTNF stimulation for all compounds, with the exception of the compounds E and F, where WT cells were induced using hTNF at 1 ng/ml: […]

Another data set relates to hTNFtg SFs. Put plainly: CCL5 and CCL20 ELISA on hTNFtg synovial fibroblasts. The settings on record: Mus musculus, Fibroblast; for activity at 10 µM: compound 10 μM; for activity at 10 µM / activity at 25 µM / activity at 50 µM: 48 h; for activity at 25 µM: compound 25 μM; for activity at 50 µM: compound 50 μM. The procedure: as §1
hTNFtg mice overexpress human TNF, resulting in the spontaneous development of arthritis.
as §2, §3, §4
(In general: ELISA stands for enzyme-linked immunosorbent assay.)

Another data set has as its system SFs and PMCs. Put plainly: Compound cytotoxicity, Crystal Violet assay. The procedure: The toxicity of the test compounds was assessed at several concentrations using the Crystal Violet assay on both SFs and PMCs. Adherent viable cells were Methanol fixed and stained with Crystal Violet. Optical density was quantified at […], as described in Feoktistova et al., 2016.

Setting [1] is: 10 ng/mL hTNF, compound 10 μM, read-out: CCL5 WT, percentage of level in untreated cells.
Where [2] appears, read: 10 ng/mL hTNF, compound 10 μM, read-out: CCL20 WT, percentage of level in untreated cells.
[3] abbreviates: read-out: CCL5 hTNFtg, percentage of level in untreated cells.
Setting [4] is: read-out: CCL20 hTNFtg, percentage of level in untreated cells.
The mark [5] stands for this setting: read-out: IC50 (μM) CCL5 hTNFtg.
Setting [6] is: read-out: IC50 (μM) CCL20 hTNFtg.

Structures are written as SMILES. Read-outs that look alike come from different tables or passages of the source.

The term IC50 denotes the concentration at which inhibition is half-maximal. On to `COc1cc(N)c(Cl)cc1C(=O)NCC1(c2ccc(F)cc2)CCCCCC1` [Compound 57, 4-amino-5-chloro-N-((1-(4-fluorophenyl)cycloheptyl)methyl)-2-methoxybenzamide], for which the activity at 10 µM in the data set on hTNF-activated wt SFs (setting [1]) was 49%; in the data set with hTNF-activated wt SFs (setting [2]) it was 13%; in the data set on hTNFtg SFs (setting [3]), 40%; in the data set on hTNFtg SFs (setting [4]), 27%. Moreover, the activity at 25 µM was determined as 14% with hTNF-activated wt SFs (10 ng/mL hTNF, compound 25 μM, read-out: CCL5 WT, percentage of level in untreated cells); 6% in the data set on hTNF-activated wt SFs (10 ng/mL hTNF, compound 25 μM, read-out: CCL20 WT, percentage of level in untreated cells); 40% in the data set on hTNFtg SFs (setting [3]); 25% in the data set with hTNFtg SFs (setting [4]). Moreover, the IC50 in the data set with hTNF-activated wt SFs (read-out: IC50 (μM) CCL5 WT) is 18 µM; with hTNF-activated wt SFs (read-out: IC50 (μM) CCL20 WT) it was 3.5 µM; with hTNFtg SFs (setting [5]), 4 µM; in the data set with hTNFtg SFs (setting [6]) it was 2.4 µM. For the same molecule, the “Cell Toxicity” value with SFs and PMCs is >25 µM.
For the molecule `COc1cc(N)c(Cl)cc1C(=O)NCC1(N2CCSCC2)CCCCCC1` [Compound 44, 4-amino-5-chloro-2-methoxy-N-((1-thiomorpholinocycloheptyl)methyl)benzamide], the activity at 10 µM with hTNF-activated wt SFs (setting [1]) was 30%; in the data set on hTNF-activated wt SFs (setting [2]) it was 75%; with hTNFtg SFs (setting [3]), 69%; in the data set with hTNFtg SFs (setting [4]), 45%. Moreover, the activity at 50 µM with hTNF-activated wt SFs (10 ng/mL hTNF, read-out: CCL5 WT, percentage of level in untreated cells) came to 2%; in the data set with hTNF-activated wt SFs (10 ng/mL hTNF, read-out: CCL20 WT, percentage of level in untreated cells), 46%; in the data set with hTNFtg SFs (setting [3]) it was 26%; in the data set with hTNFtg SFs (setting [4]), 27%. The IC50 with hTNF-activated wt SFs (read-out: IC50 (μM) CCL5 WT) is 3.7 µM; in the data set with hTNF-activated wt SFs (read-out: IC50 (μM) CCL20 WT), ~65 µM; in the data set with hTNFtg SFs (setting [5]) it was 12.6 µM; with hTNFtg SFs (setting [6]), ~15 µM. Besides, in the data set with SFs and PMCs, the “Cell Toxicity” value was >100 µM.
As to `COc1cc(N)c(Cl)cc1C(=O)NCC1(c2ccc(F)cc2Cl)CCCCCC1` [Compound 58, 4-amino-5-chloro-N-((1-(2-chloro-4-fluorophenyl)cycloheptyl)methyl)-2-methoxybenzamide], the “CCL5 WT, percentage of level in untreated cells” value in the data set on hTNF-activated wt SFs (1 ng/mL hTNF, compound 10 μM) is listed as 8%; in the data set with hTNF-activated wt SFs (1 ng/mL hTNF, compound 25 μM), 9%; in the data set with hTNF-activated wt SFs (10 ng/mL hTNF, compound 10 μM) it was 0%; in the data set with hTNF-activated wt SFs (10 ng/mL hTNF, compound 25 μM), 0%. Further, the “CCL20 WT, percentage of level in untreated cells” value came out at 14% with hTNF-activated wt SFs (1 ng/mL hTNF, compound 25 μM) and 0% in the data set with hTNF-activated wt SFs (10 ng/mL hTNF, compound 25 μM). Further, the activity at 10 µM in the data set with hTNF-activated wt SFs (1 ng/mL hTNF, compound 10 μM, read-out: CCL20 WT, percentage of level in untreated cells) worked out at 15%; in the data set with hTNF-activated wt SFs (setting [2]), 48.5%; in the data set with hTNFtg SFs (setting [3]), 64%; in the data set on hTNFtg SFs (setting [4]), 32.5%. Also, the IC50 stood at 2.96 µM in the data set on hTNF-activated wt SFs (read-out: IC50 (μM) CCL5 WT), 2.44 µM with hTNF-activated wt SFs (read-out: IC50 (μM) CCL20 WT), 0.95 µM with hTNFtg SFs (setting [5]) and 0.74 µM in the data set on hTNFtg SFs (setting [6]). Besides, the activity at 25 µM was found to be 53.5% in the data set on hTNFtg SFs (setting [3]) and 22.5% in the data set on hTNFtg SFs (setting [4]). The “Cell Toxicity” value with SFs and PMCs is >50 µM.

The values above are taken from patent publication US12686657B2, “Anti-inflammatory carboxamide derivatives” (BIOMEDCODE HELLAS SA, priority 2021, dated 2026).
